Data published in patent US11998610B2, “Conjugates and methods of using the same” (Flagship Pioneering Innovations V, Inc., priority 2018, dated 2024).
Non-standard residues stand in square brackets, D forms with d. Residues, ends and D or L forms follow the SMILES beside them. *: point of attachment. Octanoyl = CCCCCCCC(=O)*

Legend:
[1] = In vitro Colonic Material Stability Assay; type: in vitro ADME; conditions: for Assay 3 (% Remaining at 24 h): colonic material slurry, anaerobic, 1 or 10 μM; for Selective delivery to the colon (conclusion from Table 2): from SGF, SIF and colonic material stability
In short: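 Compounds were added at 1 or 10 μM final to colonic material slurry (6.7 μL of 15% w/v slurry per 1 mL YCFAC or similar medium). Samples taken at 0–2880 min were acetonitrile-quenched and the remaining compound quantified by LC/MS.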

[2] = test system: E. coli CFT073 ATCC 700928 and/or E. coli Nissle 1917; assay: Cell-based assay with ClbP with LCMS, ClbP positive strain; conditions: for % Remaining in ClbP Positve Relative to Media-Only: ClbP-encoding E. coli, 10 μM compound, 37° C., 20 h; for Difference between the ClbP Positive and ClbP Negative release profiles: conclusion from Table 4
In short: (§1)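 Compound (10 μM final) incubated 20 h at 37° C, aerobically, with 1:40-diluted overnight cultures of ClbP-positive E. coli or negative BL21(DE3), in duplicate, alongside uninoculated LB. Remaining parent quantified by LC-MS/MS (MRM) after acetonitrile quench, expressed as percent of media-alone.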

[3] = test system: E. coli BL21(DE3); assay: Cell-based assay with ClbP with LCMS, ClbP negative strain; conditions: 10 μM compound, 37° C., 20 h
In short: as §1

[4] = Stability of conjugates in Simulated Gastric Fluid (SGF); type: in vitro ADME; conditions: simulated gastric fluid pH 1.6 with pepsin, 1 μM, 37° C.
In short: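 Compounds at 1 μM (from 1 mM DMSO stock) were incubated at 37°C in simulated gastric fluid, NaCl pH 1.6 with FaSSIF powder and 0.1 mg/mL pepsin. Aliquots taken at T0 and regular intervals were quenched with an equal volume of acetonitrile and analysed by LC/MS for degradation rate.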

| SMILES | Assay 3 (% Remaining at 24 h) [1] | % Remaining in ClbP Positve Relative to Media-Only [2] | % Remaining in ClbP Negative Relative to Media-Only [3] | Assay 1 (SGF) (% Remaining @ 1 hours) [4] | Difference between the ClbP Positive and ClbP Negative release profiles [2] | Selective delivery to the colon (conclusion from Table 2) [1] |
| --- | --- | --- | --- | --- | --- | --- |
| CCCCCCCC(=O)N[C@H](CC(N)=O)C(=O)N[C@@H](CC(C)C)C(=O)OC [Example 7, Methyl octanoyl-D-asparaginyl-L-leucinate] (Octanoyl-[dN]-Leu-OMe) | A (<25% of the tested compound remaining) | + (between 25-75% compound remaining in the 20 μM WT ClbP reaction relative to the no-enzyme control) | + (between 25-75% compound remaining in the 20 μM WT ClbP reaction relative to the no-enzyme control) | C (>75% of the tested compound remaining) | – | – |
| CCCCCCCC(=O)N[C@H](CC(N)=O)C(=O)NCCN(C)C(=O)Oc1ccc2c(C)cc(=O)oc2c1 [Example 70, 4-methyl-2-oxo-2H-chromen-7-yl (R)-(2-(4-amino-2-octanamido-4-oxobutanamido)ethyl)(methyl)carbamate] | C (>75% of the tested compound remaining) | + (between 25-75% compound remaining in the 20 μM WT ClbP reaction relative to the no-enzyme control) | − (>75% compound remaining in the 20 μM WT ClbP reaction relative to the no-enzyme control) | C (>75% of the tested compound remaining) | particularly favorable difference | – |
| CCCCCCCC(=O)N[C@H](CC(N)=O)C(=O)N[C@H](C)C(=O)OC [Example 5, Methyl octanoyl-D-asparaginyl-D-alaninate] (Octanoyl-[dN]-[dA]-OMe) | C (>75% of the tested compound remaining) | ++ (<25% compound remaining in the 20 μM WT ClbP reaction relative to the control) | − (>75% compound remaining in the 20 μM WT ClbP reaction relative to the no-enzyme control) | C (>75% of the tested compound remaining) | particularly favorable difference | – |
| CCCCCCCC(=O)N[C@@H](CC(N)=O)C(=O)N[C@@H](C)C(=O)OC [Example 4, Methyl octanoyl-L-asparaginyl-L-alaninate] (Octanoyl-Asn-Ala-OMe) | A (<25% of the tested compound remaining) | ++ (<25% compound remaining in the 20 μM WT ClbP reaction relative to the control) | ++ (<25% compound remaining in the 20 μM WT ClbP reaction relative to the control) | C (>75% of the tested compound remaining) | – | – |
| CCCCCCCC(=O)N[C@H](CCC(N)=O)C(=O)N[C@@H](C)C(=O)OC [Example 10, Methyl octanoyl-D-glutaminyl-L-alaninate] (Octanoyl-[dQ]-Ala-OMe) | C (>75% of the tested compound remaining) | + (between 25-75% compound remaining in the 20 μM WT ClbP reaction relative to the no-enzyme control) | + (between 25-75% compound remaining in the 20 μM WT ClbP reaction relative to the no-enzyme control) | C (>75% of the tested compound remaining) | – | – |
| CCCCCCCCCCCCCC(=O)N[C@H](CC(N)=O)C(=O)N[C@@H](C)CCC(=O)OC [Example 21, Methyl (S)-4-((R)-4-amino-4-oxo-2-tetradecanamidobutanamido)pentanoate] | B (25-75% of the tested compound remaining) | + (between 25-75% compound remaining in the 20 μM WT ClbP reaction relative to the no-enzyme control) | − (>75% compound remaining in the 20 μM WT ClbP reaction relative to the no-enzyme control) | C (>75% of the tested compound remaining) | – | can be selectively delivered to the colon |
| CCCCCCCCCCCCCC(=O)N[C@H](CC(N)=O)C(=O)NCCCC(=O)OC [Example 20, Methyl (R)-4-(4-amino-4-oxo-2-tetradecanamidobutanamido)butanoate] | A (<25% of the tested compound remaining) | + (between 25-75% compound remaining in the 20 μM WT ClbP reaction relative to the no-enzyme control) | − (>75% compound remaining in the 20 μM WT ClbP reaction relative to the no-enzyme control) | C (>75% of the tested compound remaining) | – | can be selectively delivered to the colon |
| CCCCCCCC(=O)N[C@H](CC(N)=O)C(=O)N[C@@H](C)C(=O)OC [Example 2, Methyl octanoyl-D-asparaginyl-L-alaninate] (Octanoyl-[dN]-Ala-OMe) | C (>75% of the tested compound remaining) | ++ (<25% compound remaining in the 20 μM WT ClbP reaction relative to the control) | + (between 25-75% compound remaining in the 20 μM WT ClbP reaction relative to the no-enzyme control) | C (>75% of the tested compound remaining) | – | – |
| CCCCCCCC(=O)N[C@H](CCCNC(=N)N)C(=O)N[C@@H](C)C(=O)OC [Example 11, Methyl octanoyl-D-arginyl-L-alaninate] (Octanoyl-[dR]-Ala-OMe) | C (>75% of the tested compound remaining) | + (between 25-75% compound remaining in the 20 μM WT ClbP reaction relative to the no-enzyme control) | − (>75% compound remaining in the 20 μM WT ClbP reaction relative to the no-enzyme control) | C (>75% of the tested compound remaining) | – | – |
| COC(=O)[C@H](C)NC(=O)[C@@H](CC(N)=O)NC(=O)[C@@H](C)c1ccc2cc(OC)ccc2c1 [Example 18, Methyl ((S)-2-(6-methoxynaphthalen-2-yl)propanoyl)-D-asparaginyl-L-alaninate] | C (>75% of the tested compound remaining) | + (between 25-75% compound remaining in the 20 μM WT ClbP reaction relative to the no-enzyme control) | + (between 25-75% compound remaining in the 20 μM WT ClbP reaction relative to the no-enzyme control) | C (>75% of the tested compound remaining) | – | – |
| CCCCCCCCCCCCCC(=O)N[C@H](CC(N)=O)C(=O)N[C@@H](C)CCC(=O)O[C@]1(CC)C(=O)OCc2c1cc1n(c2=O)Cc2c-1nc1ccc(O)cc1c2CC [Example 35, (S)-4,11-diethyl-9-hydroxy-3,14-dioxo-3,4,12,14-tetrahydro-1H-pyrano[3′,4′:6,7]indolizino[1,2-b]quinolin-4-yl (S)-4-((R)-4-amino-4-oxo-2-tetradecanamidobutanamido)pentanoate] | – | + (between 25-75% compound remaining in the 20 μM WT ClbP reaction relative to the no-enzyme control) | − (>75% compound remaining in the 20 μM WT ClbP reaction relative to the no-enzyme control) | C (>75% of the tested compound remaining) | particularly favorable difference | – |
